Data as given in ChEMBL document CHEMBL1201862, “PubChem BioAssay data set” (2004).
Each block holds one compound with its values, some of them ahead of it. Active and inactive are the calls of the source.

Assays:
Cytochrome P450 2C19 = Cytochrome P450 2C19 (Homo sapiens, UniProt P33261); test: Cytochrome panel assay with activity outcomes. Panel member name: p450-cyp2c19 Compounds with AC50 equal or less than 10 uM are considered active; type: functional
Cytochrome P450 2D6 = Cytochrome P450 2D6 (Homo sapiens, UniProt P10635);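 also: CYP2D6 member of a cytochrome P450 panel assay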
Chain of Cytochrome P450 2D6 (P10635 whole entry): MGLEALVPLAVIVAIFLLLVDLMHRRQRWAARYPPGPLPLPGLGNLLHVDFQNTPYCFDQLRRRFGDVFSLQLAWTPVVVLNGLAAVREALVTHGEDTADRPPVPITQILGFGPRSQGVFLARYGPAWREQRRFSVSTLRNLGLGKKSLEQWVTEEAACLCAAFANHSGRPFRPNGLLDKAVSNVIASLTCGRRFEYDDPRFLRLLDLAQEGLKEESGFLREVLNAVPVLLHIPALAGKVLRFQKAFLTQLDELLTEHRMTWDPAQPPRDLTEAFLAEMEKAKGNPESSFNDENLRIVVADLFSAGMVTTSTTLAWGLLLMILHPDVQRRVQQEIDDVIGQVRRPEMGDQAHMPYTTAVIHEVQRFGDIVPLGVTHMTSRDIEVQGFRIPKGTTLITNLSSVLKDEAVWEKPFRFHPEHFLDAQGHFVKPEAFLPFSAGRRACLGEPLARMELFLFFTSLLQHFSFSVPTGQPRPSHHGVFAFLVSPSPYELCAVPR

Mu-type opioid receptor = Mu-type opioid receptor (Homo sapiens, UniProt P35372); test: (§1) Counterscreen for agonists of heterodimerization of the mu 1 (OPRM1) and delta 1 (OPRD1) opioid receptors: Luminescence-based cell-based high throughput dose response assay to identify agonists of OPRM1 homodimerization.; type: functional
Chain of Mu-type opioid receptor (P35372 whole entry): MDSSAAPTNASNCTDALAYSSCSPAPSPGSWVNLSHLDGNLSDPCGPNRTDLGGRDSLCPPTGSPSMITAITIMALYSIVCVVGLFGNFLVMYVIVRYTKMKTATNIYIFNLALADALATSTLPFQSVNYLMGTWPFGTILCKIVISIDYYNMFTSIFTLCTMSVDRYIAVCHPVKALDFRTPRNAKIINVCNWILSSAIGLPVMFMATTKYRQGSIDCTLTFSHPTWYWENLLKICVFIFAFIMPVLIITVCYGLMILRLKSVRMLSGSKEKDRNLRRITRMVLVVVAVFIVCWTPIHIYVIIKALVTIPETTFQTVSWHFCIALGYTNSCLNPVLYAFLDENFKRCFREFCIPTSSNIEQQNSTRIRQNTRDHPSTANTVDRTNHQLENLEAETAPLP

[1] = target: 5-hydroxytryptamine receptor 5A (Homo sapiens, UniProt P47898); test: Counterscreen for agonists of OPRM1-OPRD1 heterodimerization: luminescence-based cell-based high throughput dose response assay to identify agonists of 5-hydroxytryptamine (serotonin) 5A receptor (HTR5A). [Related pubchem assays (depositor defined):AID504326, AID504355, AID504692, AID504904, AID504905]; type: functional
Chain of 5-hydroxytryptamine receptor 5A (P47898 whole entry): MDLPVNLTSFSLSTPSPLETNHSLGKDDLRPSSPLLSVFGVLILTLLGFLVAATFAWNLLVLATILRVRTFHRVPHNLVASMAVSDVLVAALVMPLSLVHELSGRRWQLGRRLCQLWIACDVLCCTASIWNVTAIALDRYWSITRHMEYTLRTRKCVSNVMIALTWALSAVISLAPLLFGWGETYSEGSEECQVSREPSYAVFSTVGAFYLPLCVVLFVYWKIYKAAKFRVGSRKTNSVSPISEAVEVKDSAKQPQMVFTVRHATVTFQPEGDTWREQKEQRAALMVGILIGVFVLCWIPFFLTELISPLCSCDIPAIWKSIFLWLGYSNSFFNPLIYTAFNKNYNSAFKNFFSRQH

[2] = target: T1, Short transient receptor potential channel 4 (Mus musculus, UniProt Q9QUQ5); test: mouse TRPC4 channel activators, dose response, cell-based, HEK293 TRPC4/mu-opioid, Fluo-4 calcium (AID 434937); type: functional
T1 sequence (Q9QUQ5 whole entry): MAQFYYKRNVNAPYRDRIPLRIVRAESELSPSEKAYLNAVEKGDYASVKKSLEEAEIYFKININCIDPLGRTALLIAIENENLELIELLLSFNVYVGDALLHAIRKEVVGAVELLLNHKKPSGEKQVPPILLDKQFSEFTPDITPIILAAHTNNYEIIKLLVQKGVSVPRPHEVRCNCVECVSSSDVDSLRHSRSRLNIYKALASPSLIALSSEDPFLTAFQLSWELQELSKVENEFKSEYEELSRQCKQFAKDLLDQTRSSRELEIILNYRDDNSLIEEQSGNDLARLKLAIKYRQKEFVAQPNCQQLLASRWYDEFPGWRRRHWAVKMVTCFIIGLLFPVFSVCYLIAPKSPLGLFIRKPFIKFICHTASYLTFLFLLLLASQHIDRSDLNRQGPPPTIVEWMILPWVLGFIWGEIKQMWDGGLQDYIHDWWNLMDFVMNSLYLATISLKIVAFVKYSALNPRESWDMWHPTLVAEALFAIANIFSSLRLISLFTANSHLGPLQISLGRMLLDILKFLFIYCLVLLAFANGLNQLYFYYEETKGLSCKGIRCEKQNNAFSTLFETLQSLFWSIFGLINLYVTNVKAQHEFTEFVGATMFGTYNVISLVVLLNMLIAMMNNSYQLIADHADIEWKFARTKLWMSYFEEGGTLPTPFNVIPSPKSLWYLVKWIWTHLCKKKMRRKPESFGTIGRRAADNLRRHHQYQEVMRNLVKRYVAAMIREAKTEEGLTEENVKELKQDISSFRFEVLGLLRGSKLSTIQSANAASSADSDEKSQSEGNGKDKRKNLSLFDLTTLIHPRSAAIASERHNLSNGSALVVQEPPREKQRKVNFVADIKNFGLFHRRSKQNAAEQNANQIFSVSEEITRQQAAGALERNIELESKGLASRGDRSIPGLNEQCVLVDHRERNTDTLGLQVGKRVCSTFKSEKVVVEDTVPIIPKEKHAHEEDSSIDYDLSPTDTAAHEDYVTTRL

[3] = target: Delta-type opioid receptor (Homo sapiens, UniProt P41143); test: as §1, with “of OPRD1” for “of OPRM1”, “homodimerization. [Related pubchem assays (depositor defined):AID504326, AID504355, AID504692, AID504904, AID504905]” for “homodimerization.”; type: functional
Chain of Delta-type opioid receptor (P41143 whole entry): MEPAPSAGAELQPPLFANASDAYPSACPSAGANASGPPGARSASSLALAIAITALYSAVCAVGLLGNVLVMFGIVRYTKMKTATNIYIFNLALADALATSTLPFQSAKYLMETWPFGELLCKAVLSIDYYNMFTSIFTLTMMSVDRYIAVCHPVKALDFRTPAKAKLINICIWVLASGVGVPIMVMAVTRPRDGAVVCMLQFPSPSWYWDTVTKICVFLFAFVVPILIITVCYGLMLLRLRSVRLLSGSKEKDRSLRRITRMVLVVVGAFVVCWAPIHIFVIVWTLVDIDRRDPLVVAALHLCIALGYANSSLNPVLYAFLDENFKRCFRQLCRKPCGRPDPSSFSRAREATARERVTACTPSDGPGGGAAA

HEK293 [4] = test: NOD2 signaling inhibitors in MDP-stimulated cells, cell-based, uHTS, luminescence (AID 2001); type: functional; details: Homo sapiens
HEK293 [5] = test: cells; details: Homo sapiens
HEK293 [6] = test: cells; type: functional, cell-based; details: Homo sapiens
[7] = Shn3 3'UTR reporter inhibitors, dose response, cell-based, Clone20 osteoblasts, firefly luciferase, cherry-picked (AID 624132); type: functional;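 also: firefly luciferase luminescence from reporter carrying the Shn3 3'UTR in osteoblasts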
Tumor necrosis factor = Tumor necrosis factor (Homo sapiens, UniProt P01375); test: TNFa-triggered NF-kB activation inhibitors, SAR follow-up, cell-based, revised (AID 2337); type: functional
Chain of Tumor necrosis factor (P01375 whole entry): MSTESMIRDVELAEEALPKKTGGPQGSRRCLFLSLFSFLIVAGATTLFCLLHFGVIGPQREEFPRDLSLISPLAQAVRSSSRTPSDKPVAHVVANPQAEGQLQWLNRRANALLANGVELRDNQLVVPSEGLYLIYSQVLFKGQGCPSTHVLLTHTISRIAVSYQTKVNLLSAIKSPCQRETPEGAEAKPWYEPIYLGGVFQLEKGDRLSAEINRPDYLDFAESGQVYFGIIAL

[8] = control 3'UTR Renilla luciferase suppression, dose response, counter-screen for Shn3 inhibitor project, cell-based, Clone20-Shn3RL, cherry-picked (AID 624133); type: functional
[9] = target: Nucleotide-binding oligomerization domain-containing protein 2 (Homo sapiens, UniProt Q9HC29); test: NOD2 signaling inhibitors, cell-based, luminescence, uHTS, HEK293 (AID 1566); type: functional
Chain of Nucleotide-binding oligomerization domain-containing protein 2 (Q9HC29 whole entry, the tested form may be a part): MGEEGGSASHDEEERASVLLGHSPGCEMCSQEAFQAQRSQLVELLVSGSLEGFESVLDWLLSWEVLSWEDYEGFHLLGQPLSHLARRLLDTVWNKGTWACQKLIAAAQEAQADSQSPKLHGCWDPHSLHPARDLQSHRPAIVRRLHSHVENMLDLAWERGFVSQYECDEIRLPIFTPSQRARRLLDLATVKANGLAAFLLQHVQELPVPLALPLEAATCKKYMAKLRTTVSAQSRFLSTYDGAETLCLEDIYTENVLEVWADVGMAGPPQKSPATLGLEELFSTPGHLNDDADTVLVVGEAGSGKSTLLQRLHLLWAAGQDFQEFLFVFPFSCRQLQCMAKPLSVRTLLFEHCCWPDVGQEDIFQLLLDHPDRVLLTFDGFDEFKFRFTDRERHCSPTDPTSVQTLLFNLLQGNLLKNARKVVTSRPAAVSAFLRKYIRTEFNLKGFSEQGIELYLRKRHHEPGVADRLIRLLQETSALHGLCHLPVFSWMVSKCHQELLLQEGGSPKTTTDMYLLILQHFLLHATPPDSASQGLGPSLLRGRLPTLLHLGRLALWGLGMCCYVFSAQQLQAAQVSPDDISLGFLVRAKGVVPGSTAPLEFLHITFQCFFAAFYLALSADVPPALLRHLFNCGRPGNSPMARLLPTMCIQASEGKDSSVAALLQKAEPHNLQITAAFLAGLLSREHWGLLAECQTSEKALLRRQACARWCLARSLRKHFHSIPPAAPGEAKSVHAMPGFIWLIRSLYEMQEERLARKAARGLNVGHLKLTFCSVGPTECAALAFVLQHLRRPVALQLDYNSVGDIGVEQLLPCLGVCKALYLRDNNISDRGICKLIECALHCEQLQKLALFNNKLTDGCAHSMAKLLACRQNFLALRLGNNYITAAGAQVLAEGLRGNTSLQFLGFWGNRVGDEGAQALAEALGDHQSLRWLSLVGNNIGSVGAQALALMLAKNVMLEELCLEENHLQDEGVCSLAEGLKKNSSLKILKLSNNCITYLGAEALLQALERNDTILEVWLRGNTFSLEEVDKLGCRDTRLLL

HEK293 [10] = test: NOD1 signaling inhibitors, primary screen, cell-based, luminescence, uHTS (AID 1578); type: functional; details: Homo sapiens
HEK293 [11] = test: cells; type: functional, cell-based; details: Homo sapiens; remark: listed apart in the source
[12] = target: T2, Nucleotide-binding oligomerization domain-containing protein 1 (Homo sapiens, UniProt Q9Y239); test: NOD1 signaling inhibitors, SAR follow-up, revised (AID 2333); type: functional
T2 sequence (Q9Y239 whole entry): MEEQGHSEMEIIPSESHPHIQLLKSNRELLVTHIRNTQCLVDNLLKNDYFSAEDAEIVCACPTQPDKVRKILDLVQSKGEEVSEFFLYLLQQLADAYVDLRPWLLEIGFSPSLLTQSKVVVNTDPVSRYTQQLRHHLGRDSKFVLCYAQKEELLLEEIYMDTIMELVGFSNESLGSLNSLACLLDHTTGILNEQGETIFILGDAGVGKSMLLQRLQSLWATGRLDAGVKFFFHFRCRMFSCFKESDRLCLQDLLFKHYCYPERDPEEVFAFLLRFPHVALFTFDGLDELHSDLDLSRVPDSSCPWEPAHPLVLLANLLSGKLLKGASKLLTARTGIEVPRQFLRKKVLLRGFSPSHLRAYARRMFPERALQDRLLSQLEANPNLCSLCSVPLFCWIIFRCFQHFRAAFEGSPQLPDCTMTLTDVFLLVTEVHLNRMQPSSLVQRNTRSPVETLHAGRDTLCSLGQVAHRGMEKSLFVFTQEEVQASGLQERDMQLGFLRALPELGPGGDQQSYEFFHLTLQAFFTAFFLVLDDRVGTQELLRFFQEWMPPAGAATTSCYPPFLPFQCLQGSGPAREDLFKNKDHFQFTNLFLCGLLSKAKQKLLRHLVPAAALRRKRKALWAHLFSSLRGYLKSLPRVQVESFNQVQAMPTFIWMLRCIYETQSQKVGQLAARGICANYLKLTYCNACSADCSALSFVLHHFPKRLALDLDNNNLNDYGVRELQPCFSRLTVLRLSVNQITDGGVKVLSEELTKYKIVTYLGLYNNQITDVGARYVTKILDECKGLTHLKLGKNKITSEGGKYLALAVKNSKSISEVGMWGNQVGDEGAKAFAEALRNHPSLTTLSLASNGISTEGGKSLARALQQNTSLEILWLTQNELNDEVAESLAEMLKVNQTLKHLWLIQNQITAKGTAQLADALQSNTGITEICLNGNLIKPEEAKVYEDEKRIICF

[13] = target: T3, Heat shock factor protein 1 (Mus musculus, UniProt P38532); test: inhibition of MG132-induced HSE-luciferase signal, confirmation, cell-based, NIH3T3, luminescence, dose retest (AID 2382); type: functional;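 also: NIH3T3 fibroblasts with HSF1-driven luciferase reporter stressed by proteasome inhibitor MG132; luminescence from HSF1-driven luciferase expression after 8 hours of MG132 stress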
T3 sequence (P38532 whole entry): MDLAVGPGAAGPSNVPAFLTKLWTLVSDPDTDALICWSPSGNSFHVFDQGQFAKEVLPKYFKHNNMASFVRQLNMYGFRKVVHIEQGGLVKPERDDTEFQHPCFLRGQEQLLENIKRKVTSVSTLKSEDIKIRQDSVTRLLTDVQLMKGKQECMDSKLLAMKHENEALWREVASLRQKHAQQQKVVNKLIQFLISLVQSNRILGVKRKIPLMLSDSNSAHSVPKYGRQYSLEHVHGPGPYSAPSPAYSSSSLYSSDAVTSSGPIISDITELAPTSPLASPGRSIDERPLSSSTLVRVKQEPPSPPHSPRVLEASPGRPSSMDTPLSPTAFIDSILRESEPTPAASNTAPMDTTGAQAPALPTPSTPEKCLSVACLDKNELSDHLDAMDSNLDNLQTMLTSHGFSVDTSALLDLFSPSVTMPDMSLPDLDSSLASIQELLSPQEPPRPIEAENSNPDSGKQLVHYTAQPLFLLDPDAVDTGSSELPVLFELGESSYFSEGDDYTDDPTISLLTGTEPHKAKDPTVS

HEK293 [14] = test: cells; type: functional, cell-based; details: Homo sapiens; remark: listed apart in the source
Escherichia coli = test: microbe, parasite or virus in culture

Chain of Cytochrome P450 2C19 (P33261 whole entry): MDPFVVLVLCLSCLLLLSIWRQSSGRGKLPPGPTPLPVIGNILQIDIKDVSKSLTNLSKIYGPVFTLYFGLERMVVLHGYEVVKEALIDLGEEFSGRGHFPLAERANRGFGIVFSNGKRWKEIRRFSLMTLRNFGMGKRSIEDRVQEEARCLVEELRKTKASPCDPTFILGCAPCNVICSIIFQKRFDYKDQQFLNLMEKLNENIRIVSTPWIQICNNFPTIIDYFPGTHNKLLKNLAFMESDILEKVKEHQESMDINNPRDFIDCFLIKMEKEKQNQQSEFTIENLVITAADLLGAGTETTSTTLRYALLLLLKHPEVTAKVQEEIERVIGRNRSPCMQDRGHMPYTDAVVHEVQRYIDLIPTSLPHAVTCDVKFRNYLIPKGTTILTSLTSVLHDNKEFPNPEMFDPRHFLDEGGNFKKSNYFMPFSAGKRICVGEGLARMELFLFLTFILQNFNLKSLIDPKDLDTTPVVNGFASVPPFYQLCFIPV

Compound: COc1ccc(C(CNc2ncnc3sc(C)c(C)c23)N(C)C)cc1 (configuration not stated)
EC50 (Mu-type opioid receptor): > 92.4 µM (inactive)
EC50 [1]: > 92.4 µM (inactive)
EC50 [2]: 0.473 µM (active)
EC50 [3]: 70.5 µM (inactive)

Compound: Cc1cc(C(=O)COC(=O)c2ccccc2Br)c(C)n1CC1CCCO1 (configuration not stated)
IC50 (HEK293 [4]): 0.036 µM (active)
IC50 (HEK293 [5]): > 20 µM (inactive)
IC50 (HEK293 [6]): > 20 µM (inactive)
AC50 [7]: > 70 µM (inactive)
IC50 (Tumor necrosis factor): 0.0456 µM (active)
AC50 [8]: 21.4 µM (active)
EC50 [9]: 0.46 µM (active)
EC50 (HEK293 [10]): > 20 µM (inactive)
IC50 (HEK293 [11]): < 0.312 µM (active)
IC50 [12]: 4.8 µM (active)
EC50 [13]: < 0.16 µM (active)
IC50 (HEK293 [14]): > 20 µM (inactive)

Compound: O=C(COC(=O)/C=C/c1ccc(F)cc1)Nc1nnc(-c2ccccc2)o1
AC50 (Escherichia coli): 23.2 µM (active)

Compound: Cc1noc(C)c1COC(=O)c1cccc(S(=O)(=O)N2CCOCC2)c1
AC50 (Escherichia coli): 44.7 µM (active)

Compound: COC(=O)C1=C(C)N(CCCC(=O)O)C(=O)NC1c1ccccc1OS(=O)(=O)c1ccc([N+](=O)[O-])cc1 (configuration not stated)
EC50 (Mu-type opioid receptor): > 92.4 µM (inactive)
EC50 [1]: > 92.4 µM (inactive)
EC50 [3]: 11.7 µM (inactive)

Continued, values first:

AC50 (Cytochrome P450 2C19; read-out: AC50): 7.94 µM (inconclusive)
AC50 (Cytochrome P450 2D6): inconclusive
Compound: COc1ccc(C(C)=O)c(OC(=O)c2ccco2)c1

AC50 (Cytochrome P450 2C19): inconclusive
AC50 (Cytochrome P450 2D6): inconclusive
Compound: O=C(O)CCC(=O)Nc1ccc(C(=O)N2CCCCC2)cc1

EC50 (Mu-type opioid receptor): > 92.5 µM (inactive)
EC50 [1]: > 92.5 µM (inactive)
EC50 [2]: 2.11 µM (active)
EC50 [3]: 29.2 µM (inactive)
Compound: O=C(c1sc2ccccc2c1Cl)N(Cc1ccco1)C1CCS(=O)(=O)C1 (configuration not stated)

EC50 (Mu-type opioid receptor): > 92.5 µM (inactive)
EC50 [1]: > 92.5 µM (inactive)
EC50 [3]: 15.5 µM (inactive)
Compound: COC(=O)C1=C(C)N(CCCC(=O)O)C(=O)NC1c1ccccc1OS(=O)(=O)c1ccccc1[N+](=O)[O-] (configuration not stated)
